Test results from US20150259645A1, “METHOD FOR INDUCING IL-2-FREE PROLIFERATION OF GAMMA DELTA T CELLS” (INSERM (INSTITUT NATIONAL DE LA SANTÉ ET DE LA RECHERCHE …, priority 2012, published 2015).

System: Vγ9Vδ2 T lymphocytes
Test: CFSE dilution proliferation assay in PBMC culture, flow cytometry
Format: cell-based, human
Details: 100 nM BrHPP; six days culture of PBMC; FIG. 1A
Method: Fresh blood samples were collected from healthy donors, and PBMC were prepared on a Ficoll-Paque density gradient (Amersham Biosciences AB, Upssala, Sweden) by centrifugation (800 g, 30 min at room temperature).
Cell cultures were performed in complete medium: RPMI 1640 supplemented by penicillin 100 UI/ml, streptomycin 100 μg/ml, L-glutamin 2 mM, sodium pyruvate 1 mM and 10% FCS.
PBMC or PBL were labeled with 0.125 μM CFSE (Invitrogen, France) for 8 min at 37° C. and cultured in 96-well plates (3.10^5 cells per well) in 200 μl of complete medium with or without BrHPP [100 nM], IL-33 [0-1000 ng/ml] and with or without rhIL-2 [10 UI/ml] (Sanofi Aventis, France). After six days in culture CFSE dilution was evaluated in γδ T cells (CD3^+ γ9 TCR cells) by flow cytometry.
The IL-33 forms used in this example was the natural cleavage product of human IL-33 (IL-33 aa 95-270) and the truncated form of human IL-33 (IL-33 aa 112-270).
Anti-TCR γ9-APC and anti-CD3-Pacific blue were used to select Vγ9Vδ2 T lymphocytes by flow cytometry.
We studied the effect of IL-33 in combination with the specific phosphoantigen, BrHPP, on the proliferation of human Vγ9Vδ2 T lymphocytes. […] After six days in culture, the proliferation of Vγ9Vδ2 T lymphocytes was analyzed by the reduction of the CFSE fluorescence intensity on the Vγ9Vδ2 T lymphocytes gated by flow cytometry.

CC(O)(CBr)CCOP(=O)(O)OP(=O)(O)O (stereo not shown) [BrHPP]
proliferation of Vγ9Vδ2 T lymphocytes (CFSE dilution): induces the proliferation
